Among the test systems are NCI-H460; KM12; MDA-N; MOLT-4; 786-0; OVCAR-5; NCI-H23; SF-295; MDA-MB-435; A549; COLO 205; HOP-62; OVCAR-3; NCI-H226; UO-31; DU-145; LOX IMVI; CCRF-CEM; EKVX; SK-MEL-2.
Assay in all cases: NCI-60 cell line screen, 48 h

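Cultured in 96-well plates, cells were exposed to test compound for 48 hours across five concentrations. GI50 marks 50% less growth.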 Activity calls are given as the source filed them. Rule as the data show it: active = GI50 up to about 1.1 µM and inactive = higher.

Regarding `O=C1Cc2c([nH]c3cc(Br)ccc23)-c2ccccc2N1`, the GI50 with NCI-H460 was 15.5 µM (inactive); in the experiment with KM12, 18.6 µM (inactive); in the experiment on MDA-N, 30.1 µM (inactive); in the experiment on MOLT-4, 3.56 µM (inactive); in the experiment with 786-0, 36 µM (inactive); in the experiment on OVCAR-5 it was 9.51 µM (inactive). Besides, the GI50 with NCI-H23 is 11.6 µM (inactive); in the experiment on SF-295 it was 22.5 µM (inactive); in the experiment with MDA-MB-435, 26.5 µM (inactive); with A549, 15.8 µM (inactive); with COLO 205, 19.2 µM (inactive); in the experiment with HOP-62, 11.7 µM (inactive). The GI50 in the experiment on OVCAR-3 was 19.6 µM (inactive); in the experiment on NCI-H226, 6.98 µM (inactive); in the experiment on UO-31, 17.6 µM (inactive); with DU-145 it was 21.4 µM (inactive); with LOX IMVI, 2.9 µM (inactive); in the experiment on CCRF-CEM, 2.19 µM (inactive).

Turning to `COc1cccc(-c2nc(-c3cnccn3)n(Cc3ccccc3)n2)c1`, the GI50 with NCI-H460 was > 100 µM (inactive); with KM12 it was > 100 µM (inactive); in the experiment with MDA-N, > 100 µM (inactive); in the experiment with MOLT-4, > 100 µM (inactive); in the experiment on EKVX, > 100 µM (inactive); in the experiment with 786-0, 69.5 µM (inactive). In addition, the GI50 is > 100 µM (inactive) in the experiment on OVCAR-5; > 100 µM (inactive) in the experiment with NCI-H23; 54.3 µM (inactive) in the experiment with SF-295; > 100 µM (inactive) in the experiment with MDA-MB-435; > 100 µM (inactive) in the experiment on A549; > 100 µM (inactive) with COLO 205. Further, the GI50 was 44.4 µM (inactive) with HOP-62; > 100 µM (inactive) in the experiment with OVCAR-3; 73.5 µM (inactive) in the experiment with UO-31; > 100 µM (inactive) with DU-145; > 100 µM (inactive) in the experiment with LOX IMVI; > 100 µM (inactive) with CCRF-CEM.

As to `Cc1ccc2c(O)cc(-c3sccc3C)nc2n1`, the GI50 in the experiment with NCI-H460 was 0.44 µM (active); in the experiment on KM12 it was 0.719 µM (active); in the experiment with MDA-N, 0.106 µM (active); in the experiment with MOLT-4, 0.486 µM (active); in the experiment with EKVX it was 4.43 µM (inactive); in the experiment with 786-0, 0.711 µM (active). Further, the GI50 is 1.67 µM (inactive) with OVCAR-5; 0.337 µM (active) in the experiment on NCI-H23; 0.497 µM (active) in the experiment with SF-295; 0.131 µM (active) with MDA-MB-435; 0.612 µM (active) with A549; 0.37 µM (active) with COLO 205. Moreover, the GI50 with HOP-62 is 2.1 µM (inactive); in the experiment with OVCAR-3 it was 0.653 µM (active); with NCI-H226, 1.38 µM (inactive); with UO-31, 1.52 µM (inactive); with DU-145 it was 2.62 µM (inactive); in the experiment on LOX IMVI, 0.723 µM (active). The GI50 in the experiment with CCRF-CEM is 0.635 µM (active).

Turning to `OCCN1c2ccccc2Sc2ccccc21`, the GI50 in the experiment with KM12, in the experiment on MDA-N, in the experiment with MOLT-4, in the experiment on 786-0, in the experiment on OVCAR-5 and in the experiment on NCI-H23 was > 10 µM (inactive) in each case. Also, the GI50 in the experiment with SF-295, in the experiment on MDA-MB-435, with A549, in the experiment with COLO 205, in the experiment with HOP-62 and in the experiment with OVCAR-3 was > 10 µM (inactive) throughout. Also, the GI50 in the experiment on DU-145 and in the experiment with LOX IMVI was > 10 µM (inactive) throughout.

For the molecule `CN1c2ccccc2SC2C(c3ccccc3)=NOC21` (stereo not given), the GI50 in the experiment on NCI-H460 was 28.5 µM (inactive); with KM12, 47.8 µM (inactive); with MDA-N, 22.9 µM (inactive); in the experiment on MOLT-4, 30.4 µM (inactive); in the experiment with EKVX, 24.9 µM (inactive); with 786-0, 35.4 µM (inactive). The GI50 in the experiment on OVCAR-5 was 94.8 µM (inactive); with NCI-H23 it was 23.1 µM (inactive); in the experiment on SF-295 it was 30.7 µM (inactive); in the experiment on A549, 36.5 µM (inactive); in the experiment with COLO 205, 22.7 µM (inactive); in the experiment on HOP-62, 33.8 µM (inactive). The GI50 with OVCAR-3 was 56.1 µM (inactive); with NCI-H226, 47.6 µM (inactive); with UO-31, 35.1 µM (inactive); with DU-145 it was 65.6 µM (inactive); in the experiment with CCRF-CEM, > 100 µM (inactive); in the experiment with SK-MEL-2, 38.5 µM (inactive).

Regarding `CN(C)c1nc(-c2ccccc2)c(C(=O)c2c[nH]c3ccccc23)s1`, the GI50 in the experiment with NCI-H460 was 3.55 µM (inactive); in the experiment with KM12, 4.2 µM (inactive); in the experiment on MDA-N, 1.93 µM (inactive); in the experiment on MOLT-4, 6.62 µM (inactive); in the experiment on EKVX, 26 µM (inactive); in the experiment with 786-0 it was 8.61 µM (inactive). Also, the GI50 in the experiment on OVCAR-5 was > 24.3 µM (inactive); in the experiment on NCI-H23 it was 30 µM (inactive); in the experiment on SF-295 it was 3.92 µM (inactive); in the experiment with MDA-MB-435 it was 2.09 µM (inactive); with A549, 6.62 µM (inactive); in the experiment with COLO 205, 4.78 µM (inactive). Also, the GI50 in the experiment on HOP-62 was 15.1 µM (inactive); in the experiment with OVCAR-3, 5.04 µM (inactive); with NCI-H226, > 25.7 µM (inactive); with UO-31 it was 11.2 µM (inactive); in the experiment on DU-145, 34.2 µM (inactive); with LOX IMVI, 6.49 µM (inactive). For the same molecule, the GI50 in the experiment with CCRF-CEM was 5.92 µM (inactive).

Consider `CC(=O)OCc1ccc(-c2nc(C#N)c(N)o2)o1`, for which the GI50 in the experiment with NCI-H460, in the experiment with KM12, with MDA-N, in the experiment on MOLT-4, with EKVX and in the experiment with 786-0 was > 10 µM (inactive) each time. Moreover, the GI50 with NCI-H23, with SF-295, with MDA-MB-435, in the experiment with A549, in the experiment with COLO 205 and in the experiment with HOP-62 was > 10 µM (inactive) throughout. Moreover, the GI50 in the experiment with NCI-H226, in the experiment on UO-31, in the experiment on DU-145, in the experiment on LOX IMVI and with CCRF-CEM was > 10 µM (inactive) each time.

With `Cc1ccnn1CCc1ccc(Cl)cc1Cl`, the GI50 with NCI-H460 is 27.2 µM (inactive); in the experiment on KM12 it was 27 µM (inactive); in the experiment on MDA-N it was 44.3 µM (inactive); in the experiment with MOLT-4, 13.1 µM (inactive); in the experiment with EKVX it was 2.31 µM (inactive); in the experiment with OVCAR-5 it was 32.4 µM (inactive). For the same molecule, the GI50 in the experiment with NCI-H23 is 24.8 µM (inactive); in the experiment with SF-295, 18 µM (inactive); in the experiment on MDA-MB-435, 38.2 µM (inactive); in the experiment with A549, 27.6 µM (inactive); with COLO 205 it was 35 µM (inactive); with HOP-62, 15 µM (inactive). Also, the GI50 with OVCAR-3 is 20.5 µM (inactive); in the experiment with UO-31, 4.63 µM (inactive); in the experiment with DU-145 it was 37.4 µM (inactive); with LOX IMVI, 33 µM (inactive); in the experiment with CCRF-CEM, 25.4 µM (inactive).
